{
  "source": "paper PMC3996367",
  "about": "“Profiling of drugs and environmental chemicals for functional impairment of neural crest migration in a novel stem cell-based test battery” (Archives of Toxicology, 2014)",
  "key": {"[1]": {"test_system": "mESC-derived neural stem cells (mESCn)", "details": "mouse"}, "[2]": {"design": "method as in US EPA [2006]", "details": "ref US EPA [2006]; cited from earlier work"}, "[3]": {"test_system": "hESC-derived neural crest cells (NCC)", "details": "human"}, "[4]": {"test_system": "migration of hESC-derived neural crest cells (NCC)", "test": "MINC assay (migration inhibition of neural crest cells, UKN2)", "details": "48 h, in a non-cytotoxic concentration range"}, "[5]": {"design": "method as in US EPA [2006]", "details": "ref US EPA [2006]; cited from earlier work", "remark": "listed apart in the source"}, "rats": {"test_system": "rats", "details": "cited from earlier work"}, "Xenopus laevis embryos": {"test_system": "Xenopus laevis embryos", "design": "method as in Di Renzo et al. (2011)", "details": "treated during early neurulation; craniofacial defects, bent forebrain, abnormal hindbrain segmentation; ref Di Renzo et al. (2011); cited from earlier work"}, "HEK293 cells": {"test_system": "HEK293 cells", "details": "human"}},
  "data": [
    {"smiles": "CC(C)(C)C(=O)C(Oc1ccc(Cl)cc1)n1cncn1", "note": "(stereo not drawn) [Triadimefon]", "values": [
      {"measurement": "Highest non-cytotoxic conc. in mESCn", "setting": "[1]", "result": "> 50.0", "unit": "µM"},
      {"measurement": "Octanol:water partition (Kow)", "setting": "[2]", "result": 912},
      {"measurement": "Concentration for hit finding in NCC (highest non-cytotoxic concentration in the UKN2 test system)", "setting": "[3]", "result": 50, "unit": "µM"},
      {"measurement": "Effect on NCC migration in concentration-response study", "setting": "[4]", "result": "concentration-dependent effect"},
      {"measurement": "Blood:plasma concentration ratio", "setting": "[5]", "result": 0.84},
      {"measurement": "Free (unbound) fraction", "setting": "[5]", "result": 0.11},
      {"measurement": "Dose increasing testosterone levels and related effects in male offspring", "setting": "rats; Wistar rats, perinatal exposure, ref Goetz et al. (2007)", "result": 47, "unit": "mg/kg/day"},
      {"measurement": "Dose causing the same neurotoxic symptoms", "setting": "rats; chronic dietary exposure, male Wistar rats, ref US EPA (2006)", "result": 54.6, "unit": "mg/kg/day"},
      {"measurement": "Doses at which a range of toxic effects is observed", "setting": "rats; effects on male fertility and CNS toxicity, ref Crowell et al. 2011", "result": "around 50 mg/kg/day"},
      {"measurement": "Dose causing transient CNS toxicity (hyperactivity, stereotyped behavior)", "setting": "rats; single dose, oral gavage, adult male Long-Evans rats, ref Crofton et al. (2011)", "result": 50, "unit": "mg/kg"},
      {"measurement": "Concentration inducing abnormalities", "setting": "Xenopus laevis embryos", "result": 500, "unit": "µM"},
      {"measurement": "Highest non-cytotoxic conc. in HEK293", "setting": "HEK293 cells", "result": 50.0, "unit": "µM"}
    ]}
  ]
}
